One assay concerns the target T1, ERα (Homo sapiens, UniProt P03372).
T1 sequence (P03372 1-595): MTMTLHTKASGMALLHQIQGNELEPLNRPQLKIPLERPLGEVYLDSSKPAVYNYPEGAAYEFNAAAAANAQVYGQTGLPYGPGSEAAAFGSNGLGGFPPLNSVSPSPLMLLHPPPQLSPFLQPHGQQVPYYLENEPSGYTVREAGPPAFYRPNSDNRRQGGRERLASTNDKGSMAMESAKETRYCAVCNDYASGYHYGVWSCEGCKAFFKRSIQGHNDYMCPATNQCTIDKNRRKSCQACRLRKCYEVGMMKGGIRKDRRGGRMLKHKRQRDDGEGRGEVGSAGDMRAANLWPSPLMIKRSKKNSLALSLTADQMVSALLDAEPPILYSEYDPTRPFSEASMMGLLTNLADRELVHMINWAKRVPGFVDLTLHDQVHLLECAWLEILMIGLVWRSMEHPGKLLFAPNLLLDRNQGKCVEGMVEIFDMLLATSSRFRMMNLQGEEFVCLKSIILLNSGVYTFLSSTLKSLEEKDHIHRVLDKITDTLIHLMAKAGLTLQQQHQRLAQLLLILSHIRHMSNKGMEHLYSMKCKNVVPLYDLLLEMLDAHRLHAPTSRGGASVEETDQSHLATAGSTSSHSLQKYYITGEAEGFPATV
The assay is described as follows: Estrogen receptor-binding assay, competition with [3H]-17β-estradiol. More on the design: expressed in transfected cells; host or cells: Cos-7. The conditions noted are these: extracts of cos-7 cells expressing human ERα; 2 nM [3H]-E2; tocols 1 μM to 1 mM; N.M. = not measurable.

The next assay concerns the target ERβ (Homo sapiens, UniProt Q92731). Described as above. The arrangement: expressed in transfected cells; host or cells: Cos-7. Particulars: extracts of cos-7 cells expressing human ERβ; 2 nM [3H]-E2; tocols 1 μM to 1 mM; N.M. = not measurable.
In assay [1] the test system is ER-dependent transcription in MELN cells. The assay is described as follows: ERE-luciferase reporter assay in MELN cells (MCF-7 stably transfected with ERE-β-globin-tk-Luc). The format is cell-based, human. The conditions noted are these: for stimulation of luciferase expression (ER-dependent transcription): 500 μM (tocols 10 to 500 μM). The text has this:
MELN cells were established by transfecting ER(+) MCF-7 cells with the ERE-β-globin-tk-Luc-SV-Neo plasmid ([36]). HELN cells were generated by transfection of ER(−) HeLa cells with this plasmid. The HELN-ERα, HELN-ERβ, HELN-ΔAB-ERα, and HELN-ΔAB-ERβ cell lines then underwent a second transfection with the corresponding pSG5-puro plasmids (pSG5-ERα-puro, pSG5-ERβ-puro, pSG5-ΔAB-ERα-puro, and pSG5-ΔAB-ERβ-puro, respectively) and expressed wild-type or mutated ERα or ERβ ([39], [40]). […] Comparison of the activities toward hERα and hERβ with the truncated ΔAB-ERα and ΔAB-ERβ provides a powerful model to identify partial ER agonists (requiring ligand-independent AF-1 to induce maximal ER activation). […] Cells were grown routinely in DMEM growth medium supplemented with 5% FBS (Gibco BRL, Life Technologies, Cergy pontoise, France). Cells were incubated at 37°C in a humidified 5% CO2 incubator. For experiments, cells were grown for 5 days in phenol red-free medium, containing 6% dextran-coated charcoal-treated FCS (DCC-FCS) with penicillin–streptomycin. Medium was changed after 2 days. On day 5, cells were treated or not with the compounds, which were dissolved in ethanol. For each condition, 15 × 10^3 cells were seeded per well in 12-well plates and treated, as described above, for 8 h in a final volume of 0.5 ml. At the end of the treatment, cells were washed with PBS and lysed in 150 μl lysis buffer (Promega, Charbonnières, France). Luciferase activity was measured using the luciferase assay reagent (Promega), according to the manufacturer’s instructions. Protein concentrations were measured using the Bradford technique ([41]) to normalize the luciferase activity data. For each condition, average luciferase activity was calculated from the data of three independent wells.
Figure 3 Measurement of estrogenicity of tocols in vitro. (A) Dose–response curve of the effect of tocols on MCF-7 cells stably transfected with the ERE-β-globin-tk-Luc plasmid (MELN cells). […] Data shown are the mean values ± SEM from three independent experiments. […] MCF-7 extracts were analyzed for the presence of ERα by western blotting using GAPDH as a control. […] The western blot shown is representative of three independent experiments. The ratio of ERα to GAPDH levels in each experiment was determined densitometrically and normalized to control value (taken to be 1). (D) Effect of δ-tocols on estrogen response element-dependent luciferase activity in HELN cells, which are HELA cells transfected with either fully functional ERα or ERβ or their mutated versions containing a deletion the AB domain (ΔAB). […] Data shown are the mean values ± SEM from three independent experiments. […] Cells were treated with 500 μM δ-tocols in the presence or in the absence of ICI. The relative expression of TGFα, PR, and Ps2 (TFF1) after 16 h was analyzed by quantitative RT-PCR. Data shown are the mean values ± SEM from three independent experiments.
(In general: In a reporter assay the amount or activity of a reporter protein is the signal.)

The next assay deals with MDA-MB-231 (ER(−)) cells. Briefly: Cell proliferation assay (sulforhodamine B). The format is cell-based, human. The conditions noted are these: 500 μM δ-TP or δ-TT; 30 μM lovastatin; 6-day period. The procedure: MCF-7 (ER(+)), T47D (ER(+)), and MDA-MB-231 (ER(−)) cell lines were from ATCC. Cell lines were maintained at 37°C in a humidified incubator in a 5% CO2-enriched atmosphere in T-75 flasks. MCF-7, T47D, and MDA-MB-231 cells were grown routinely in phenol red RPMI 1640 medium supplemented with 5% FBS (Gibco BRL, Life Technologies, Cergy Pontoise, France) and with penicillin–streptomycin. Cells were grown for 24 h before treatment in phenol red-free medium containing 5% DCC-FCS. Cells were seeded into 96-well plates at 2000 cells/well. Treatment media (150 μl/well) was added on the following day and replaced at 48-h intervals until the end of the experiment. Cell density was measured via the sulforhodamine B method ([43]) after 0, 2, 4, 6, and 8 days. The absorbance of SRB was measured directly at 490 nm in the 96-well plates using a multiskan® multisoft reader from Labsystem.
Figure 4 Effect of tocol on ER(+) and ER(−) BC cell proliferation and HMG-CoA reductase activity. (A) Effect of δ-tocols on estrogen and non-estrogen-regulated growth of MCF-7, T47D, and MDA-MB-231 cells. […] Cells were also treated with 30 μM lovastatin (Lova) in the presence or absence of 5 mM M, as described in Section “Materials and Methods.” Values are shown as means and vertical bars represent SEM. The data were analyzed by two-way ANOVA, followed by Bonferroni post hoc test. ***P < 0.001, **P < 0.01, and *P < 0.05 in comparison with control or bare-linked specific control. Ns: not significant. (B) Effect of δ-TT on hydroxymethylglutaryl coenzyme A reductase (HMGR) activity in MCF-7, T47D, and MDA-MB-231 cells. […] Data shown are the mean values ± SEM from three independent experiments performed in triplicate.

The next assay concerns MCF-7 (ER(+)) cells. The assay is described as follows: Cell proliferation assay (sulforhodamine B). The format is cell-based, human.
The test system of a further assay is T47D (ER(+)) cells. The assay is described as follows: Cell proliferation assay (sulforhodamine B). The format is cell-based, human.
Setting [2] is: 500 μM δ-TP or δ-TT, 30 μM lovastatin, 6-day period.

ERβ, sequence (Q92731 whole entry): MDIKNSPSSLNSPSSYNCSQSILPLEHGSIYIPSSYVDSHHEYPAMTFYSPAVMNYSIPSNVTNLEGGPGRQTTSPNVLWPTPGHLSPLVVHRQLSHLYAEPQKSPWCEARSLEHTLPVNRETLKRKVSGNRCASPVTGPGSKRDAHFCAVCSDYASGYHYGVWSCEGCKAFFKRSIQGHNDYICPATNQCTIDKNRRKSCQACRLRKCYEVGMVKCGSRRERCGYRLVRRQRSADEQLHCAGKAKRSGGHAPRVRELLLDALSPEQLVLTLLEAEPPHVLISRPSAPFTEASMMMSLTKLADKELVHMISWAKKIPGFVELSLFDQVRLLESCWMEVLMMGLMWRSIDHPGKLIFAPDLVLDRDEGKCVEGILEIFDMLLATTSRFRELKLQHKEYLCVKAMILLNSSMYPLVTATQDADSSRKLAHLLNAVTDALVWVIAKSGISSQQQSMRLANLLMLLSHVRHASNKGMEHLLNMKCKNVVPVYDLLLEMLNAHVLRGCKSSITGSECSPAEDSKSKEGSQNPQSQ
Protocol for MCF-7 (ER(+)) cells: (§1) MCF-7 (ER(+)), T47D (ER(+)), and MDA-MB-231 (ER(−)) cell lines were from ATCC. Cell lines were maintained at 37°C in a humidified incubator in a 5% CO2-enriched atmosphere in T-75 flasks. […] Cells were grown for 24 h before treatment in phenol red-free medium containing 5% DCC-FCS. Cells were seeded into 96-well plates at 2000 cells/well. Treatment media (150 μl/well) was added on the following day and replaced at 48-h intervals until the end of the experiment. Cell density was measured via the sulforhodamine B method ([43]) after 0, 2, 4, 6, and 8 days. The absorbance of SRB was measured directly at 490 nm in the 96-well plates using a multiskan® multisoft reader from Labsystem.
Protocol for T47D (ER(+)) cells: as §1

In the case of `CC1=CC(=O)C=C(CC[C@](C)(O)CCC[C@H](C)CCC[C@H](C)CCCC(C)C)C1=O` [δ-TPQuin, δ-tocopherylquinone], the “ERα (IC50)” value at ERα was “did not bind and N.M”. Moreover, the “ERβ (IC50)” value on ERβ is “did not bind and N.M”. In addition, in assay [1], the “stimulation of luciferase expression (ER-dependent transcription)” value (“stimulation of luciferase expression” for short) was “did not stimulate the expression of luciferase”.

Take `CC(C)=CCC/C(C)=C/CC/C(C)=C/CC[C@]1(C)CCc2cc(O)c(C)c(C)c2O1` [γ-TT, γ-tocotrienol]: the IC50 at ERα was determined as 203 ± 25 µM; on ERβ it was 205 ± 18 µM.

Take `Cc1cc(C(C)(C)C)c(O)c(C(C)(C)C)c1` [BHT, butylated hydroxytoluene, reference compound]: in assay [1], the “stimulation of luciferase expression” value is “did not stimulate the expression of luciferase”.

For the molecule `CC[C@H](C)C(=O)O[C@H]1C[C@@H](C)C=C2C=C[C@H](C)[C@H](CC[C@@H]3C[C@@H](O)CC(=O)O3)[C@H]21` [lovastatin, reference compound], the “effect on MDA-MB-231 cell proliferation” value with MDA-MB-231 (ER(−)) cells was “inhibition of cell proliferation”. Moreover, the “effect on MCF-7 cell proliferation” value in the assay on MCF-7 (ER(+)) cells (setting [2]) is given as “inhibition of cell proliferation”. In the assay with T47D (ER(+)) cells (setting [2]), the “effect on T47D cell proliferation” value was “inhibition of cell proliferation”.

Take `CCCCN(C)C(=O)CCCCCCCCCCC1Cc2cc(O)ccc2C2CC[C@@]3(C)C(CC[C@@H]3O)C12` (stereo partly shown) [ICI 164,384, reference compound]: the “blockade of δ-TP- and E2-induced stimulation of MCF-7 proliferation” value with MCF-7 (ER(+)) cells (1 μM ICI 164,384) is reported as “blocked”. Further, the “blockade of tocol-induced ER-dependent transcriptional activity” value in assay [1] (1 μM ICI 164,384 with 500 μM δ-TP or δ-TT) is given as “blocked”. Further, the “blockade of δ-TP- and E2-induced stimulation of T47D proliferation” value in the assay with T47D (ER(+)) cells (1 μM ICI 164,384) was “blocked”.

As for `CC(C)=CCC/C(C)=C/CC/C(C)=C/CC[C@]1(C)CCc2c(C)c(O)c(C)c(C)c2O1` [α-TT, α-tocotrienol], the results for the IC50 on ERα and at ERβ were 412 ± 22 µM and 388 ± 32 µM, respectively.

Take `Cc1c(C)c2c(c(C)c1O)CC[C@@](C)(CCC[C@H](C)CCC[C@H](C)CCCC(C)C)O2` [α-TP, α-tocopherol]: the results for the IC50 on ERα and at ERβ were 453 ± 30 µM and 431 ± 21 µM, respectively.

On to `CC(C)(Sc1cc(C(C)(C)C)c(O)c(C(C)(C)C)c1)Sc1cc(C(C)(C)C)c(O)c(C(C)(C)C)c1` [Probucol, probucol, reference compound], for which the “stimulation of luciferase expression” value in assay [1] is listed as “did not stimulate the expression of luciferase”.

Regarding `Cc1c(O)cc2c(c1C)O[C@](C)(CCC[C@H](C)CCC[C@H](C)CCCC(C)C)CC2` [γ-TP, γ-tocopherol], the values for the IC50 at ERα and on ERβ were 227 ± 28 µM and 215 ± 16 µM, respectively.

What is called IC50 is the point on the concentration scale where inhibition reaches its midpoint. A higher IC50 goes with lower potency.

Values taken from publication PMC4700278, “Molecular and Biochemical Analysis of the Estrogenic and Proliferative Properties of Vitamin E Compounds” (Frontiers in Oncology, 2016).
